The values that follow come from patent US20100160369A1, “S1P1 Agonists and Methods of Making And Using” (EXELIXIS, INC., priority 2008, published 2010).

In assay [1] the target is T1, S1P1 (Homo sapiens, UniProt P21453). Put plainly: CNG cAMP Assay (Assay 1). The assay is classed as cell-based. Also noted: host or cells: HEK293 cells expressing the CNG channel. The conditions noted are these: read-out: Assay 1 EC50. In a few lines: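 HEK293 cells expressing CNG channel and S1P1, membrane-potential dye loaded; compounds (top 10 μM, 10-point 3-fold, 1.8% DMSO) added with 25 μM Ro 20-1724, 500 nM NECA and 10 nM S1P for 90 min. T90/T0 fluorescence (Ex 350/Em 590 nm) normalised to NECA-alone vs DMSO; EC50 fitted.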
Target sequence in this assay (P21453 whole entry): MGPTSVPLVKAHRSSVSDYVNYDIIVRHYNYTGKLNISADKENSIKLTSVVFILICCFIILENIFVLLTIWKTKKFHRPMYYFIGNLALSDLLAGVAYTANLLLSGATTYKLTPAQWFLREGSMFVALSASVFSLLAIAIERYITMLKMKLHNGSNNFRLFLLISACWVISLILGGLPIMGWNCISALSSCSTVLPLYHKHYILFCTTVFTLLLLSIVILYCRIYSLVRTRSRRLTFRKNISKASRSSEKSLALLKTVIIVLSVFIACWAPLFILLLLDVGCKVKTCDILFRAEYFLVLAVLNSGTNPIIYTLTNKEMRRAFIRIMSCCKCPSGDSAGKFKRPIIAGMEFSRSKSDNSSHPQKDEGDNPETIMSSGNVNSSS

Assay [2] deals with T1, S1P1. Put plainly: Tango β-arrestin Recruitment Assay in HEK293 cells (Assay 2a). The format is cell-based. Also noted: linker with TEV protease (N1a) cleavage site (C); host or cells: HEK293, transiently transfected. The conditions noted are these: Tango β-arrestin Recruitment Assay, read-out: Assay 2a EC50. In outline: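 HEK293 cells transiently expressing S1P1 (TEV-cleavable tTA fusion) with β-arrestin2–TEV; compounds up to 10 μM, 10-point 3-fold, 1% DMSO, 30 min then 16–18 h at 37 °C. Luciferase luminescence normalised to 5 μM S1P as 100% and DMSO as background; EC50 from percent-activity curves.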
Target sequence in this assay (P21453 whole entry): as above
Target sequence in this assay (P32121 whole entry partner): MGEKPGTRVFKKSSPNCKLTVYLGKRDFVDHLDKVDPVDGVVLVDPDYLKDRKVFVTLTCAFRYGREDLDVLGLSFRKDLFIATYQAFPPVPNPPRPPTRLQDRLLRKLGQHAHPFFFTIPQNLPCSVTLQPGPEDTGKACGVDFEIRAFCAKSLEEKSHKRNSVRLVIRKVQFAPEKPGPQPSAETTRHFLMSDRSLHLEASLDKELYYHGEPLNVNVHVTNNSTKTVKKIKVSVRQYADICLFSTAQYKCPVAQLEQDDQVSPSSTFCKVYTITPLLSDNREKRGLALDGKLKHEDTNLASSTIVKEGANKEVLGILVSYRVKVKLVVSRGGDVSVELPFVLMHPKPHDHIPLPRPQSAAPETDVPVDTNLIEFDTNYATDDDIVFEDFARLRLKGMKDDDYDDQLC
In general terms: Activated receptors often draw arrestin, which recruitment assays turn into a signal.

For the next assay, the target named is T2, hS1P1R (hEdg1) (Homo sapiens, UniProt P21453).
T2 construct: purchased Lonza
In words: hS1P1R GTPγS Binding Assay (Assay 3a). The format is biochemical. How it is done:
The hS1P1R GTPγS binding assay was carried out at room temperature in 96 well non-binding surface assay plates. The reaction in each well contained 4 μg hS1P1R (hEdg1) membrane protein (Lonza), 30 μM GDP, 0.1 nM [^35S]GTPγS, 0.25% fatty acid free BSA, and serially diluted hS1P1R agonist compound in 200 μL assay buffer (25 mM Tris-HCl PH 7.9, 100 mM NaCl, 3 mM MgCl2, and 0.2 mM EGTA). After one hour of incubation, 0.9 mg of WGA (Wheat Germ Agglutinin) SPA beads in 50 μL of assay buffer was added to each well. The SPA beads were spun down after an additional one hour incubation. The radioactivity of the bound GTPγS was counted by reading the assay plate using a MicroBeta.
Assay 1 is the CNG cAMP Assay as described in Biological Example 1. Assay 2a and 2b are the Tango™ β-arrestin Recruitment Assay in HEK293 and U2OS cells, respectively, as described in Biological Example 2. Assay 3a is the hS1P1R GTPγS Binding Assay as described in Biological Example 3. Assay 3b is the GTP-Eu Binding Assay as described in Biological Example 3. EC50's were measured unless otherwise noted. […] In the table, “nt” means the Compound was not tested and “no” means the compound was tested but had no measurable activity under the assay conditions employed.

The target in assay [3] is T1, S1P1. Put plainly: Tango β-arrestin Recruitment Assay in U2OS cells (Assay 2b). The conditions noted are these: Tango β-arrestin Recruitment Assay, read-out: Assay 2b EC50. The format is cell-based. Also noted: linker with TEV protease (N1a) cleavage site (C). In outline: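 U2OS cells expressing S1P1 and reporter, serum-starved 48 h, treated with compound (10-point 3-fold series, top 1 μM, 1% DMSO) overnight at 37 °C; β-lactamase substrate added 2 h at room temperature. F460/F530 ratio normalised to 1 μM S1P (100%) and DMSO; EC50 from concentration-response.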
Target sequence in this assay (P21453 whole entry): as the sequence (P21453 whole entry) above
Target sequence in this assay (P32121 whole entry partner): as the sequence (P32121 whole entry partner) above

T2 sequence (P21453 whole entry): as the sequence (P21453 whole entry) above

On to `O=C(O)CCc1c(Cl)cc(-c2noc(-c3cn4cc(C(F)(F)F)cc(Cl)c4n3)n2)cc1Cl` [Entry 21], for which the half-maximal effective concentration (EC50) – broadly, the concentration at which the effect is half-maximal – on S1P1 [1] was at most 100 nM; at S1P1 [2], at most 100 nM; on hS1P1R (hEdg1), 500 to 1000 nM.
In the case of `OC[C@H](O)COc1cc(Cl)c(-c2noc(-c3cn4cc(C(F)(F)F)cc(Br)c4n3)n2)cc1Cl` [Entry 33], the concentration for a half-maximal effect (EC50) at S1P1 [2], on hS1P1R (hEdg1) and on S1P1 [3] was at most 100 nM each time.
For the compound `C[C@H](O)COc1cc(Cl)c(-c2noc(-c3cn4cc(C(F)(F)F)cc(Cl)c4n3)n2)cc1Cl` [Entry 38], the EC50 at S1P1 [2], at hS1P1R (hEdg1) and on S1P1 [3] was at most 100 nM each time.
`OCC(O)COc1cc(Cl)c(-c2nc(-c3cn4cc(C(F)(F)F)cc(Cl)c4n3)no2)cc1Cl` (centres unmarked) [Entry 50]: the concentration for a half-maximal effect (EC50) at S1P1 [2], on hS1P1R (hEdg1) and on S1P1 [3] was at most 100 nM throughout.
For the compound `O=C(O)C1CC1c1cc(Cl)c(-c2noc(-c3cn4cc(C(F)(F)F)cc(Br)c4n3)n2)cc1F` (centres unmarked) [Example 89, 2-(4-{5-[8-bromo-6-(trifluoromethyl)imidazo[1,2-a]pyridin-2-yl]-1,2,4-oxadiazol-3-yl}-5-chloro-2-fluorophenyl)cyclopropanecarboxylic acid], the values for the half-maximal effective concentration (EC50) on S1P1 [1], on S1P1 [2] and at hS1P1R (hEdg1) were at most 100 nM, at most 100 nM and 500 to 1000 nM, respectively.
As to `OCCCOc1cc(Cl)c(-c2noc(-c3cn4cc(C(F)(F)F)cc(Cl)c4n3)n2)cc1Cl` [Example 105, 3-[(2,5-dichloro-4-{5-[8-chloro-6-(trifluoromethyl)imidazo[1,2-a]pyridin-2-yl]-1,2,4-oxadiazol-3-yl}phenyl)oxy]propan-1-ol], the concentration for a half-maximal effect (EC50) at S1P1 [2], at hS1P1R (hEdg1) and at S1P1 [3] was at most 100 nM each time.
Take `OC(CF)COc1cc(Cl)c(-c2noc(-c3cn4cc(C(F)(F)F)cc(Cl)c4n3)n2)cc1Cl` (centres unmarked) [Example 118, 1-[(2,5-dichloro-4-{5-[8-chloro-6-(trifluoromethyl)imidazo[1,2-a]pyridin-2-yl]-1,2,4-oxadiazol-3-yl}phenyl)oxy]-3-fluoropropan-2-ol]: the concentration giving a half-maximal response (EC50) on S1P1 [2], on hS1P1R (hEdg1) and on S1P1 [3] was at most 100 nM throughout.
Consider `CC(C)(O)COc1cc(Cl)c(-c2noc(-c3cn4cc(C(F)(F)F)cc(Cl)c4n3)n2)cc1Cl` [Example 166, 1-[(2,5-dichloro-4-{5-[8-chloro-6-(trifluoromethyl)imidazo[1,2-a]pyridin-2-yl]-1,2,4-oxadiazol-3-yl}phenyl)oxy]-2-methylpropan-2-ol], for which the 50% effective concentration (EC50) is at most 100 nM on S1P1 [2], 100 to 500 nM on hS1P1R (hEdg1) and at most 100 nM on S1P1 [3].
`OCCCc1cc(Cl)c(-c2noc(-c3cn4cc(C(F)(F)F)cc(Cl)c4n3)n2)cc1Cl` [Example 167, 3-(2,5-dichloro-4-{5-[8-chloro-6-(trifluoromethyl)imidazo[1,2-a]pyridin-2-yl]-1,2,4-oxadiazol-3-yl}phenyl)propan-1-ol]: the EC50 at S1P1 [2], at hS1P1R (hEdg1) and on S1P1 [3] was at most 100 nM in each case.
For `OCC(O)COc1ccc(-c2noc(-c3cn4cc(C(F)(F)F)cc(Cl)c4n3)n2)c(Cl)c1` (centres unmarked) [Example 194, 3-[(3-chloro-4-{5-[8-chloro-6-(trifluoromethyl)imidazo[1,2-a]pyridin-2-yl]-1,2,4-oxadiazol-3-yl}phenyl)oxy]propane-1,2-diol], the EC50 at S1P1 [1] was at most 100 nM; on S1P1 [2], at most 100 nM; on hS1P1R (hEdg1) it was 500 to 1000 nM.
With `OCC(O)COc1cc(Cl)c(-c2noc(-c3cn4cc(C(F)(F)F)cc(Cl)c4n3)n2)cc1F` (centres unmarked) [Example 198, 3-[(5-chloro-4-{5-[8-chloro-6-(trifluoromethyl)imidazo[1,2-a]pyridin-2-yl]-1,2,4-oxadiazol-3-yl}-2-fluorophenyl)oxy]propane-1,2-diol], the EC50 on S1P1 [1], at S1P1 [2] and on hS1P1R (hEdg1) was at most 100 nM each time.
On to `OCC(O)COc1cc(Cl)c(-c2noc(-c3cn4cc(I)cc(Cl)c4n3)n2)cc1Cl` (centres unmarked) [Example 204, 3-({2,5-dichloro-4-[5-(8-chloro-6-iodoimidazo[1,2-a]pyridin-2-yl)-1,2,4-oxadiazol-3-yl]phenyl}oxy)propane-1,2-diol], for which the results for the EC50 at S1P1 [2] and at hS1P1R (hEdg1) were at most 100 nM and 100 to 500 nM, respectively.
For `O=C(O)CCc1c(Cl)cc(-c2nnc(-c3cn4cc(C(F)(F)F)cc(Cl)c4n3)s2)cc1Cl` [Example 206, 3-(2,6-dichloro-4-{5-[8-chloro-6-(trifluoromethyl)imidazo[1,2-a]pyridin-2-yl]-1,3,4-thiadiazol-2-yl}phenyl)propanoic acid] the same measures were at most 100 nM and 1000 to 5000 nM.
For `O=C(O)CCc1cc(Cl)c(-c2nnc(-c3cn4cc(I)cc(Cl)c4n3)s2)cc1F` [Example 207, 3-{5-chloro-4-[5-(8-chloro-6-iodoimidazo[1,2-a]pyridin-2-yl)-1,3,4-thiadiazol-2-yl]-2-fluorophenyl}propanoic acid], in that order: at most 100 nM and 1000 to 5000 nM.
Consider `OCC(O)COc1c(Cl)cc(-c2noc(-c3cn4cc(C(F)(F)F)cc(Cl)c4n3)n2)cc1Cl` (centres unmarked) [Example 209, 3-[(2,6-dichloro-4-{5-[8-chloro-6-(trifluoromethyl)imidazo[1,2-a]pyridin-2-yl]-1,2,4-oxadiazol-3-yl}phenyl)oxy]propane-1,2-diol], for which the concentration for a half-maximal effect (EC50) on S1P1 [2] and on hS1P1R (hEdg1) was at most 100 nM throughout.
Consider `NC(CO)COc1ccc(-c2noc(-c3cn4cc(C(F)(F)F)cc(Cl)c4n3)n2)c(Cl)c1` (centres unmarked) [Example 213, 2-amino-3-[(3-chloro-4-{5-[8-chloro-6-(trifluoromethyl)imidazo[1,2-a]pyridin-2-yl]-1,2,4-oxadiazol-3-yl}phenyl)oxy]propan-1-ol], for which the EC50 at S1P1 [1], at S1P1 [2] and on S1P1 [3] was at most 100 nM in each case.
With `O=C(O)CCc1cc(Cl)c(-c2nc(-c3cn4cc(I)cc(Cl)c4n3)no2)cc1F` [Example 240, 3-{5-chloro-4-[3-(8-chloro-6-iodoimidazo[1,2-a]pyridin-2-yl)-1,2,4-oxadiazol-5-yl]-2-fluorophenyl}propanoic acid], the half-maximal effective concentration (EC50) was at most 100 nM at S1P1 [2] and 500 to 1000 nM at hS1P1R (hEdg1).
Take `Cc1cc(-c2nnc(-c3cn4cc(C(F)(F)F)cc(Cl)c4n3)s2)cc(C)c1OCC(O)CO` (centres unmarked) [Example 246, 3-[(4-{5-[8-chloro-6-(trifluoromethyl)imidazo[1,2-a]pyridin-2-yl]-1,3,4-thiadiazol-2-yl}-2,6-dimethylphenyl)oxy]propane-1,2-diol]: the concentration for a half-maximal effect (EC50) on S1P1 [1], on S1P1 [2] and on S1P1 [3] was at most 100 nM throughout.
With `OCC(O)COc1cc(Cl)c(-c2nnc(-c3cn4cc(C(F)(F)F)cc(Cl)c4n3)s2)cc1F` (centres unmarked) [Example 247, 3-[(5-chloro-4-{5-[8-chloro-6-(trifluoromethyl)imidazo[1,2-a]pyridin-2-yl]-1,3,4-thiadiazol-2-yl}-2-fluorophenyl)oxy]propane-1,2-diol], the EC50 is at most 100 nM on S1P1 [1], at most 100 nM on S1P1 [2] and 100 to 500 nM on S1P1 [3].
Consider `CC(Cc1cc(Cl)c(-c2nnc(-c3cn4cc(C(F)(F)F)cc(Cl)c4n3)s2)cc1Cl)C(=O)O` (centres unmarked) [Example 285, 3-(2,5-dichloro-4-{5-[8-chloro-6-(trifluoromethyl)imidazo[1,2-a]pyridin-2-yl]-1,3,4-thiadiazol-2-yl}phenyl)-2-methylpropanoic acid], for which the concentration giving a half-maximal response (EC50) was at most 100 nM at S1P1 [2] and 1000 to 5000 nM at hS1P1R (hEdg1).
For `N[C@H](CO)COc1cc(Cl)c(-c2nnc(-c3cn4cc(C(F)(F)F)cc(Cl)c4n3)s2)cc1F` [Example 334, (2R)-2-Amino-3-[(5-chloro-4-{5-[8-chloro-6-(trifluoromethyl)imidazo[1,2-a]pyridin-2-yl]-1,3,4-thiazol-2-yl}-2-fluorophenyl)oxy]propan-1-ol], the EC50 on S1P1 [2] and at S1P1 [3] was at most 100 nM in each case.
